Source: article PMC8347709 (International Journal of Molecular Sciences, 2021)

Key:
hCB2R(D80N) = biological target: T1, hCB2R(D80N) (Homo sapiens, UniProt P34972, D80N); assay: PET in rat model with local overexpression of hCB2R(D80N) in the right striatum; format: in vivo; parameters: reduction of the AUC20–60min by displacement: concentration or dose not given beside the values; conditions: for time to peak: TAC; for reduction of the AUC20–60min by displacement: GW405833 i.v. at 20 min p.i.; for change of AUC40–60min by displacement versus vehicle: GW405833 5 mg/kg i.v. 20 min after tracer
T1 construct: expressed in transfected cells; host or cells: rat striatal cells transduced in vivo with AAV2/7-CaMKII0.4-intron-hCB2R D80N
T1 sequence (P34972 whole entry D80N): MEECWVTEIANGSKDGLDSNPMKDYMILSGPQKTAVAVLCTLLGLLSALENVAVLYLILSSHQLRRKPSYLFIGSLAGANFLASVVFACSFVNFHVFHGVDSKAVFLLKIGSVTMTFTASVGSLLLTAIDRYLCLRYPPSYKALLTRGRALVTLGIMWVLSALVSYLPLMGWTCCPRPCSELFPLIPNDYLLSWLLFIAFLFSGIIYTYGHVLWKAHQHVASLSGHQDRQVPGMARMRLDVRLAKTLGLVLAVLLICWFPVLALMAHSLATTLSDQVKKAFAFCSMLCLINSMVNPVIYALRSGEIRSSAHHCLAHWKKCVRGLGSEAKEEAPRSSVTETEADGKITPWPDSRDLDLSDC
From the text: For the uptake studies into the spleen three male Wistar Hun rats (Janvier Laboratories, Le Genest Saint Isle, France) weighing 268 ± 56 g were used. For the uptake studies into the brain, five female Wistar rats weighing 263 ± 13 g carrying the stereotactically injected AAV 2/7-CaMKII0.4-intron-hCB2R D80N (right striatum) and AAV2/7-CaMKII0.4-intron-3flag-eGFP (contralateral, left striatum). Animals were initially anaesthetised with 5% isoflurane and placed on a thermostatically heated animal bed where anaesthesia was maintained with 2% isoflurane in 60% oxygen/38% room air. […] List-mode PET data were binned as a series of attenuation-corrected sinogram frames (12 × 10 s, 6 × 30 s, 5 × 60 s and 10 × 300 s) and were reconstructed by ordered subset expectation maximisation (OSEM3D) with four iterations, six subsets and a voxel size of 0.4 mm^3 (Nucline v2.01, Mediso, Hungary). The analysis of reconstructed datasets was performed with PMOD software (v4.103, PMOD Technologies LLC, Zurich, Switzerland). Non-parametrical analyses of achieved time-activity curves (TACs) were performed with Microsoft Excel to determine the time to peak, the TAC peak value and the area-under-the-zero-momentum curve (AUC):(1) AUC0−tx=∫0txcradioactivity × dt where c (radioactivity) is expressed as a standardised uptake value normalised to the bodyweight in g (SUV), the area-under-first-momentum curve (AUMC):(2) AUMC0−tx=∫0txt × cradioactivity × dt and the mean residence time (MRT):(3) MRT=AUMC0−tx/AUC0−tx

[1] = stability of the formulated product; format: physicochemical; conditions: in saline, within 24 h at room temperature
Experimental: The purification of the product was performed by semipreparative HPLC (Figure 3), followed by trapping on a Sep-Pack C18-light cartridge and elution with EtOH. For biological experiments, the solvent was evaporated under a stream of nitrogen at 70 °C until a volume of about 20–30 µL remained. The product was formulated by using 280 µL saline (0.9% aqueous NaCl). The total synthesis time was about 70 min. […] A logD7.4 of 3.15 ± 0.25 was determined by the shake flask method, which is in accordance with the calculated cLogP of 3.0 (ChemDraw Professional 19.0).

[2] = hCB2R D80N-to-cerebellum, vehicle (10 min prior tracer), n = 3
[3] = hCB2R D80N-to-contralateral, vehicle (10 min prior tracer), n = 3
[4] = same rat model, comparator data ref 68

C[C@H]1CC[C@@H](NC(=O)c2cc3cccnc3n(CCCC[18F])c2=O)CC1 [[^18F]LU14] showed a time to peak (hCB2R(D80N); cerebellum) of 1.6 ± 1.4 min, a time to peak (hCB2R(D80N); contralateral region) of 3.8 ± 1.6 min and a time to peak (hCB2R(D80N); hCB2R(D80N) right striatum, rats, i.v., n = 3) of 7.4 ± 2.8 min. For the same compound, the AUC (hCB2R(D80N); cerebellum) was 41.1 ± 5.6 SUV × min, the AUMC (hCB2R(D80N); cerebellum) was 819 ± 132 SUV × min^2 and the MRT (hCB2R(D80N); cerebellum) was 19.9 ± 1.2 min. The TAC peak value (hCB2R(D80N); cerebellum) was 2.7 ± 0.0 SUV, the “reduction of the AUC20–60min by displacement” value (hCB2R(D80N); compared to the cerebellum) was 76% and the “reduction of the AUC20–60min by displacement” value (hCB2R(D80N); compared to the contralateral region) was 73%. For the same compound, the AUC (hCB2R(D80N); contralateral region) was 42.6 ± 6.8 SUV × min, the AUMC (hCB2R(D80N); contralateral region) was 854 ± 165 SUV × min^2 and the MRT (hCB2R(D80N); contralateral region) was 20.0 ± 1.1 min. The TAC peak value (hCB2R(D80N); contralateral region) was 2.2 ± 0.4 SUV, the “change of AUC40–60min by displacement versus vehicle” value (hCB2R(D80N); hCB2R D80N-to-cerebellum) was −76.3% and the “AUC40–60min (CI95%)” value (hCB2R(D80N); hCB2R D80N-to-cerebellum, displacement by GW405833 5 mg/kg i.v. 20 min after tracer, n = 2) was 51 (42 to 60) SUVr × min. For the same compound, the “AUC0–20min (CI95%)” value (hCB2R(D80N); hCB2R D80N-to-cerebellum, displacement group (GW405833 5 mg/kg i.v. 20 min after tracer), n = 2) was 49 (40 to 59) SUVr × min, the “AUC0–20min (CI95%)” value (hCB2R(D80N); [2]) was 44 (39 to 48) SUVr × min and the “AUC40–60min (CI95%)” value (hCB2R(D80N); [2]) was 215 (190 to 241) SUVr × min. The “change of AUC40–60min by displacement versus vehicle” value (hCB2R(D80N); hCB2R D80N-to-contralateral) was −73.4%, the “AUC40–60min (CI95%)” value (hCB2R(D80N); hCB2R D80N-to-contralateral, displacement by GW405833 5 mg/kg i.v. 20 min after tracer, n = 2) was 56 (50 to 62) SUVr × min and the “AUC0–20min (CI95%)” value (hCB2R(D80N); hCB2R D80N-to-contralateral, displacement group (GW405833 5 mg/kg i.v. 20 min after tracer), n = 2) was 48 (41 to 54) SUVr × min. The “AUC0–20min (CI95%)” value (hCB2R(D80N); [3]) was 40 (37 to 42) SUVr × min, the “AUC40–60min (CI95%)” value (hCB2R(D80N); [3]) was 210 (190 to 231) SUVr × min and the AUC (hCB2R(D80N); hCB2R(D80N) right striatum) was 155 ± 28 SUV × min. For the same compound, the AUMC (hCB2R(D80N); hCB2R(D80N) right striatum) was 4349 ± 701 SUV × min^2, the MRT (hCB2R(D80N); hCB2R(D80N) right striatum) was 28.0 ± 0.4 min and the TAC peak value (hCB2R(D80N); hCB2R(D80N) right striatum) was 3.3 ± 0.6 SUV. The “uptake in the brain region with CB2R overexpression compared to [11C]NE40” value (hCB2R(D80N); [4]) was “about two-fold”, the “uptake in the brain region with CB2R overexpression compared to [18F]MA3” value (hCB2R(D80N); [4]) was “about five-fold” and the “decomposition of the formulated product” value [1] was “No decomposition”.
